The values below come from PubChem BioAssay (NCI).

Some test systems named below: OVCAR-5 ovarian; SK-MEL-28 melanoma; SR leukemia; IGROV1 ovarian; RXF 393 renal; CCRF-CEM leukemia; SK-MEL-2 melanoma; SNB-75 CNS; MALME-3M melanoma; ACHN renal.
Common to all, as to test: NCI-60 cell line screen, 48 h

Several values for one entry are separate records, joined by “and”; a condition that tells them apart may be missing. Equal values may be shown once.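 Following 48 hours of exposure in 96-well plates, responses at five concentrations were used to interpolate endpoints linearly. Here, GI50 denotes the concentration required for 50% inhibition of growth. TGI: total growth inhibition.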 A value given as a limit tells only on which side of the number the result lay.

As to `C=CC(=O)N1CCCC(n2nc(-c3ccc(Oc4ccccc4)cc3)c3c(N)ncnc32)C1` (centres undefined), the GI50 in the experiment with OVCAR-5 ovarian is 13.1 µM; with SK-MEL-28 melanoma it was 12.3 µM; in the experiment with SR leukemia, 9.28 µM; in the experiment on IGROV1 ovarian it was 0.643 µM; with RXF 393 renal it was 2.68 µM; in the experiment with CCRF-CEM leukemia, 8.02 µM. Besides, the GI50 is 16 µM in the experiment with SK-MEL-2 melanoma, 3.55 µM in the experiment on SNB-75 CNS, 12.4 µM in the experiment with MALME-3M melanoma and 0.248 µM with ACHN renal. Also, the TGI came out at 27.6 µM in the experiment on OVCAR-5 ovarian; 25 µM with SK-MEL-28 melanoma; 34.1 µM in the experiment with SR leukemia; 14.6 µM in the experiment on IGROV1 ovarian; 11.4 µM in the experiment with RXF 393 renal; 42.6 µM in the experiment on CCRF-CEM leukemia. For the same compound, the TGI is 31.6 µM in the experiment with SK-MEL-2 melanoma, 14.2 µM in the experiment on SNB-75 CNS, 29.3 µM in the experiment on MALME-3M melanoma and 15.8 µM in the experiment on ACHN renal.
On to `COc1cc(OC)c(/C=C/c2ccc3ccccc3[n+]2C)c(OC)c1`, for which the GI50 is 3.09 µM in the experiment with OVCAR-5 ovarian; 0.891 µM in the experiment on SK-MEL-28 melanoma; 0.35 µM in the experiment on SR leukemia; 1.21 µM in the experiment on IGROV1 ovarian; 2.06 µM in the experiment with RXF 393 renal; 0.697 µM with CCRF-CEM leukemia. Besides, the GI50 is 1.13 µM in the experiment with SK-MEL-2 melanoma, 0.586 µM with SNB-75 CNS, 0.691 µM in the experiment with MALME-3M melanoma and 4.32 µM in the experiment on ACHN renal. The TGI came out at 25.2 µM with OVCAR-5 ovarian; 3.62 µM in the experiment with SK-MEL-28 melanoma; 2.68 µM in the experiment on SR leukemia; 13.6 µM in the experiment with IGROV1 ovarian; 11.7 µM in the experiment on RXF 393 renal; 6.49 µM in the experiment on CCRF-CEM leukemia. Besides, the TGI was 3.06 µM with SK-MEL-2 melanoma, 12.4 µM in the experiment on SNB-75 CNS, 5.38 µM in the experiment with MALME-3M melanoma and > 75.5 µM in the experiment with ACHN renal.
`CC(C)=CC(C(O)c1ccccc1)S(=O)(=O)c1nccn1C` (centres undefined): the TGI in the experiment with OVCAR-5 ovarian, in the experiment with SK-MEL-28 melanoma, in the experiment on SR leukemia, in the experiment on IGROV1 ovarian, in the experiment on RXF 393 renal and in the experiment on CCRF-CEM leukemia was > 100 µM each time. The TGI in the experiment with SK-MEL-2 melanoma, in the experiment with SNB-75 CNS, in the experiment with MALME-3M melanoma and with ACHN renal was > 100 µM throughout.
On to `O=C(Nc1ccccc1C(F)(F)F)c1cccc(NC2=C(Cl)C(=O)N(Cc3ccccc3)C2=O)c1`, for which the GI50 was 20 µM in the experiment with OVCAR-5 ovarian; > 90.2 µM with SK-MEL-28 melanoma; 0.447 µM with SR leukemia; 0.985 µM with IGROV1 ovarian; 3.13 µM in the experiment on RXF 393 renal; 10.4 µM with CCRF-CEM leukemia. The GI50 with SK-MEL-2 melanoma is 14.9 µM; in the experiment on SNB-75 CNS, 30.7 µM; in the experiment with MALME-3M melanoma, 42.6 µM; with ACHN renal it was 5.39 µM. The TGI in the experiment with OVCAR-5 ovarian was > 100 µM; in the experiment with SK-MEL-28 melanoma, > 100 µM; in the experiment with SR leukemia, 4.35 µM; in the experiment with IGROV1 ovarian it was 18.8 µM; in the experiment with RXF 393 renal, 12.3 µM; with CCRF-CEM leukemia, 31.7 µM. Besides, the TGI in the experiment with SK-MEL-2 melanoma was 79 µM; with SNB-75 CNS, > 57.6 µM; in the experiment with MALME-3M melanoma it was > 100 µM; in the experiment with ACHN renal, 26.9 µM.
On to `O=c1ccn(C2OC(CO)C(O)C2O)c(=O)[nH]1` (centres undefined), for which the TGI with OVCAR-5 ovarian, with SK-MEL-28 melanoma, with SR leukemia, in the experiment with IGROV1 ovarian, in the experiment on RXF 393 renal and in the experiment on CCRF-CEM leukemia was > 1000 µM throughout. In addition, the TGI in the experiment with SK-MEL-2 melanoma, in the experiment with SNB-75 CNS, in the experiment on MALME-3M melanoma and with ACHN renal was > 1000 µM throughout. Besides, the GI50 in the experiment on SK-MEL-28 melanoma, in the experiment with SR leukemia, in the experiment on IGROV1 ovarian, in the experiment with RXF 393 renal, in the experiment on CCRF-CEM leukemia and in the experiment on SK-MEL-2 melanoma was > 1000 µM throughout. Besides, the GI50 with SNB-75 CNS is 789 µM and > 10 µM; in the experiment with MALME-3M melanoma it was 740 µM and > 10 µM; in the experiment on ACHN renal, > 1000 µM.
With `Cc1c(CCCl)c(=O)n2c([nH]c3ccccc32)c1C#N`, the TGI in the experiment on OVCAR-5 ovarian is 4.43 µM; in the experiment with SK-MEL-28 melanoma, 3.72 µM; in the experiment on SR leukemia it was > 10 µM; with IGROV1 ovarian it was 3.4 µM; in the experiment on RXF 393 renal it was 3.8 µM; in the experiment with CCRF-CEM leukemia, 2.5 µM. The TGI turned out to be 4.46 µM in the experiment with SK-MEL-2 melanoma, 2.78 µM in the experiment on SNB-75 CNS, 2.02 µM in the experiment on MALME-3M melanoma and 2.81 µM in the experiment with ACHN renal.
For the compound `COc1ccc(-c2c(C3=NCCN3)nnn2-c2ccccc2)cc1`, the TGI with OVCAR-5 ovarian, with SK-MEL-28 melanoma, with SR leukemia, with IGROV1 ovarian, with RXF 393 renal and in the experiment on CCRF-CEM leukemia was > 100 µM each time. Besides, the TGI in the experiment on SK-MEL-2 melanoma, in the experiment on SNB-75 CNS, in the experiment with MALME-3M melanoma and in the experiment with ACHN renal was > 100 µM each time.
In the case of `CC(=O)O/N=C/c1ncccc1CO`, the TGI in the experiment on OVCAR-5 ovarian, in the experiment on SK-MEL-28 melanoma, in the experiment on SR leukemia, in the experiment on IGROV1 ovarian, in the experiment on RXF 393 renal and in the experiment on CCRF-CEM leukemia was > 100 µM each time. In addition, the TGI in the experiment on SK-MEL-2 melanoma, in the experiment on SNB-75 CNS, in the experiment with MALME-3M melanoma and with ACHN renal was > 100 µM in each case.
Take `COc1cc(/C=C/c2cc(C(F)(F)F)[nH]c(=O)n2)ccc1OCc1ccccc1F`: the GI50 in the experiment on OVCAR-5 ovarian was 16.5 µM; in the experiment with SK-MEL-28 melanoma it was 9.27 µM; in the experiment with SR leukemia, 4.17 µM; with IGROV1 ovarian, 12.4 µM; with RXF 393 renal it was 2.4 µM; in the experiment on CCRF-CEM leukemia it was 3.94 µM. The GI50 in the experiment with SK-MEL-2 melanoma is 12.1 µM; in the experiment with SNB-75 CNS it was 21 µM; with MALME-3M melanoma, 13.9 µM; in the experiment with ACHN renal, 12.7 µM. Also, the TGI in the experiment with OVCAR-5 ovarian turned out to be 30.9 µM; in the experiment on SK-MEL-28 melanoma, 24.7 µM; in the experiment on SR leukemia, 43.3 µM; in the experiment on IGROV1 ovarian, 42 µM; in the experiment with RXF 393 renal it was 8.78 µM; in the experiment on CCRF-CEM leukemia, 26.3 µM. Also, the TGI amounted to 28.2 µM with SK-MEL-2 melanoma, 56.7 µM in the experiment on SNB-75 CNS, 43.1 µM in the experiment with MALME-3M melanoma and 38.7 µM in the experiment with ACHN renal.
